# Source: patent US7019109B2, “SSTR1-selective analogs” (The Salk Institute for Bilogical Studies, priority 2001, dated 2006)
# Where two headings read alike, the source gives them in different places. *1 amine or outer side, *2 acyl side, *3 side chain or, on linkers, in order; H or OH if unused. Where a SMILES comes first, the peptide text is derived from it. Bridges are numbered along the chain shown (N, C = ends). [ ]: non-standard residue; d: D form. NMePhe(4-CH2NHiPr) = CN[C@@H](Cc1ccc(CNC(C)C)cc1)C(=O)O; Phe(4-CH2NHiPr) = CC(C)NCc1ccc(C[C@H](N)C(=O)O)cc1; Tyr(3-I) = N[C@@H](Cc1ccc(O)c(I)c1)C(=O)O; X1 = NC(=O)N[C@@H](CS[*:2])C(=O)[*:1]; d2Nal = N[C@H](Cc1ccc2ccccc2c1)C(=O)O
# Tests used:
# Assay type in all cases: binding
# [1] = molecular target: T1, human SSTR1 (Homo sapiens, UniProt P30872); experiment: Displacement of 125I-[Leu8,D-Trp22,Tyr25]-SRIF-28 from cloned SSTR1 (receptor autoradiography); conditions: for binding strength and selectivity for SSTR1, in words: Peptide No. 27 and 2A after iodination
# T1 construct: expressed in transfected cells; host or cells: CHO-K1 cells and CCL39 cells
# Method: (§1) Generally, recombinant cells expressing the receptor are washed and homogenized to prepare a crude protein homogenate that is frozen, embedded and then cut in 10–20 μm thin sections, as known in this art. Candidate substances, such as potential SRIF agonists and antagonists, are incubated with the tissue sections, and the interaction between the candidate substance and the receptor polypeptide is monitored.
# (§2) Receptor binding assays are performed on cloned SRIF receptors as generally set forth in Reubi, J. C. et al., J. Clin. Endocrinol. […] Med. 2000, 27, 273–282.
# (§3) In vitro Bioassay: The various somatostatin analogs are tested in vitro for their ability to bind to isolated cloned receptors expressed on CHO-K1 cells and CCL39 cells. CHO-K1 cells are grown in Ham's F-12 medium, and CCL39 cells are grown in Dulbecco's modified Eagle's medium/Ham's F-12(1:1) mix, supplemented with 10% fetal bovine serum, 100 U/ml penicillin and 100 μg/ml streptomycin, in humidified air containing 5% CO2 at 37° C.
# (§4) Cells are washed and prepared to produce homogenates as described in detail in Reubi, J. C. et al, Eur. J. Nucl. Med. 2000, 27, 273–282.
# (§5) Receptor autoradiography is performed on 20 μm thick cryostat sections of the membrane pellets, mounted on microscope slides, and then stored at −20° C. […] Increasing concentrations of the unlabeled peptide are used ranging from 0.1–1000 nM. […] IC50 values are calculated after quantification of the data using a computer-assisted image processing system as known in this art.
# [2] = molecular target: T2, human SSTR2 (Homo sapiens, UniProt P30874); experiment: Displacement of 125I-[Leu8,D-Trp22,Tyr25]-SRIF-28 from cloned SSTR2 (receptor autoradiography)
# T2 construct: expressed in transfected cells; host or cells: CHO-K1 cells and CCL39 cells
# Method: as §1, §2, §3, §4
# (§6) Receptor autoradiography is performed on 20 μm thick cryostat sections of the membrane pellets, mounted on microscope slides, and then stored at −20° C. […] […] […] IC50 values are calculated after quantification of the data using a computer-assisted image processing system as known in this art.
# [3] = molecular target: T3, human SSTR3 (Homo sapiens, UniProt P32745); experiment: Displacement of 125I-[Leu8,D-Trp22,Tyr25]-SRIF-28 from cloned SSTR3 (receptor autoradiography); conditions: for effect on binding of the SRIF-28 radioligand to human SSTR3: at concentrations of 100 nM
# T3 construct: expressed in transfected cells; host or cells: CHO-K1 cells and CCL39 cells
# Method: as §1, §2, §3, §4, §5
# [4] = molecular target: T4, human SSTR4 (Homo sapiens, UniProt P31391); experiment: Displacement of 125I-[Leu8,D-Trp22,Tyr25]-SRIF-28 from cloned SSTR4 (receptor autoradiography)
# T4 construct: expressed in transfected cells; host or cells: CHO-K1 cells and CCL39 cells
# Method: as §1, §2, §3, §4, §5
# [5] = molecular target: T5, human SSTR5 (Homo sapiens, UniProt P35346); experiment: Displacement of 125I-[Leu8,D-Trp22,Tyr25]-SRIF-28 from cloned SSTR5 (receptor autoradiography)
# T5 construct: expressed in transfected cells; host or cells: CHO-K1 cells and CCL39 cells
# Method: as §1, §2, §3, §4, §6
# [6] = inhibition of radioligand binding of 125I-[Leu8,D-Trp22,Tyr24]SRIF-28, cloned receptor, table, read-out: IC50 (nM) mSSTR4
# [7] = displacement of iodinated SRIF-28 radioligand, read-out: IC50 / binding affinity at human SSTR1
# [8] = inhibition of radioligand binding of 125I-[Leu8,D-Trp22,Tyr24]SRIF-28, cloned receptor, table, read-out: IC50 (nM) mSSTR1
# [9] = inhibition of radioligand binding of 125I-[Leu8,D-Trp22,Tyr24]SRIF-28, cloned receptor, table, read-out: IC50 (nM) mSSTR2
# [10] = read-out: concentration below which no binding to SSTR2
# [11] = inhibition of radioligand binding of 125I-[Leu8,D-Trp22,Tyr24]SRIF-28, cloned receptor, table, read-out: IC50 (nM) mSSTR5
# [12] = read-out: concentration below which no binding to SSTR5
# T4 sequence (P31391 whole entry): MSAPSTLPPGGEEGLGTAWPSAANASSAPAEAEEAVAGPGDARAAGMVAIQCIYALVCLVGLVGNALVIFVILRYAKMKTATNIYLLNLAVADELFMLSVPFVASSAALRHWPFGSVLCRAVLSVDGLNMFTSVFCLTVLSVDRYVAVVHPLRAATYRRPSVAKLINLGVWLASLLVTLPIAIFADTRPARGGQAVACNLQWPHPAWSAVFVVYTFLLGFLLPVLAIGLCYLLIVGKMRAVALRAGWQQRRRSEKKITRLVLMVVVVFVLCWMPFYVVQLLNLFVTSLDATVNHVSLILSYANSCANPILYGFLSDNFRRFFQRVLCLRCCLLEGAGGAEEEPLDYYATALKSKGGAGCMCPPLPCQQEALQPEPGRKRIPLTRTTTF
# T1 sequence (P30872 whole entry): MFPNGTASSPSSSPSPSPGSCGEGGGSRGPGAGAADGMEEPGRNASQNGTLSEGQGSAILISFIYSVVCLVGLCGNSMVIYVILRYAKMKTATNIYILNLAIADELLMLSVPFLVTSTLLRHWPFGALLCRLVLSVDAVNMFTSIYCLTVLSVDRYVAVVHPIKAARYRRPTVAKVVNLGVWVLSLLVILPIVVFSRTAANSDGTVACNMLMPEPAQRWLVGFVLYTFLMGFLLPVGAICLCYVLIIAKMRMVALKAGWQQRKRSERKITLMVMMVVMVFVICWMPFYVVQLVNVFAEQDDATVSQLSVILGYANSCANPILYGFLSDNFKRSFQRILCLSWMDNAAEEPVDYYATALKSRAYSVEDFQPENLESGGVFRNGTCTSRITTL
# T2 sequence (P30874 whole entry): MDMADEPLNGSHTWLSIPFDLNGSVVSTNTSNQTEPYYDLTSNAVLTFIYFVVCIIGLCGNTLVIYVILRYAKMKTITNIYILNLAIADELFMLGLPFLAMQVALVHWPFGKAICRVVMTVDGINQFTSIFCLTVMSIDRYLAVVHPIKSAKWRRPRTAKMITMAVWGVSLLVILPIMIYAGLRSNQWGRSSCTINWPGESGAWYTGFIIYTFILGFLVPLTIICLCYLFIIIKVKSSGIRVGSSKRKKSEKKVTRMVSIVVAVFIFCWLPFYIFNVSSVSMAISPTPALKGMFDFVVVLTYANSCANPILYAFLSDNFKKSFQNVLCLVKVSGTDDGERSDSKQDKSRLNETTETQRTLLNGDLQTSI
# T5 sequence (P35346 whole entry): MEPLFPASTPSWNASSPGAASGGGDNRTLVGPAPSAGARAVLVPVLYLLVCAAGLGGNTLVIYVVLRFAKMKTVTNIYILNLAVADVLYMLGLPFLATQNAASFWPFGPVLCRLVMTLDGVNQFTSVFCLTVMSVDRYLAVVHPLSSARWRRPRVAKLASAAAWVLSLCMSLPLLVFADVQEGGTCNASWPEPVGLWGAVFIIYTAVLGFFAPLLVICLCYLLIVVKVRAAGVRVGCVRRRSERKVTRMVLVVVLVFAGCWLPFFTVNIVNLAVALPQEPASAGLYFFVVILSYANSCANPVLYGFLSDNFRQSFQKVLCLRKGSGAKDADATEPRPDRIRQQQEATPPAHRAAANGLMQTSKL
# T3 sequence (P32745 whole entry): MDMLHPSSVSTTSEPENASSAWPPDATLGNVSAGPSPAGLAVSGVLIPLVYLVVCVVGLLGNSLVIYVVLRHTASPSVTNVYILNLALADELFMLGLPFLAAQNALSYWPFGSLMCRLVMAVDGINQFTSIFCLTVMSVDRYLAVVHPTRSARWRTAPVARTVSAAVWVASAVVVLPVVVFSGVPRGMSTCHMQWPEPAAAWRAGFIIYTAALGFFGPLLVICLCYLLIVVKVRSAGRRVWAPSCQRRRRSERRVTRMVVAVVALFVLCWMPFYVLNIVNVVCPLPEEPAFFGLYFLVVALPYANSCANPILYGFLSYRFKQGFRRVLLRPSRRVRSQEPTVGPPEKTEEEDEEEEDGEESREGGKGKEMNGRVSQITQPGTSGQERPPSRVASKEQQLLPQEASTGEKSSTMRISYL
SMILES,"binding strength and selectivity for SSTR1, in words [1]",IC50 ([2]; read-out: IC50 (nM) mSSTR2) [nM],effect on binding of the SRIF-28 radioligand to human SSTR3 [3],"IC50 [4, 6] [nM]","IC50 [1, 7] [nM]","IC50 [1, 8] [nM]","IC50 [2, 9] [nM]","IC50 [2, 10] [nM]",IC50 ([3]; read-out: IC50 (nM) mSSTR3) [nM],IC50 ([4]; read-out: IC50 (nM) mSSTR4) [nM],"IC50 [5, 11] [nM]","IC50 [5, 12] [nM]",IC50 ([5]; read-out: IC50 (nM) mSSTR5) [nM],other results
"CC(C)NCc1ccc(C[C@@H]2NC(=O)[C@@H](Cc3c[nH]c4ccccc34)NC(=O)[C@H](Cc3ccccc3)NC(=O)[C@H](Cc3ccccc3)NC(=O)[C@H](CCCCN)NC(=O)[C@@H](N)CSSC[C@@H](C(=O)O)NC(=O)[C@H](CO)NC(=O)[C@H]([C@@H](C)O)NC(=O)[C@H](Cc3ccc(O)cc3)NC(=O)[C@H]([C@@H](C)O)NC2=O)cc1 [2A, (cyclo)H-Cys-Lys-Phe-Phe-D-Trp-IAmp-Thr-Tyr-Thr-Ser-Cys-OH] (H-CKFF[dW][Phe(4-CH2NHiPr)]TYTSC-OH; disulfide 1-11)",continues to bind strongly,> 10000,even less effect,> 10000,–,–,–,–,–,–,–,–,–,–
"CC(C)NCc1ccc(C[C@H]2C(=O)N[C@@H]([C@@H](C)O)C(=O)N[C@@H](Cc3ccc(O)cc3)C(=O)N[C@@H]([C@@H](C)O)C(=O)N[C@@H](CO)C(=O)N[C@H](C(=O)O)CSSC[C@H](N)C(=O)N[C@@H](CCCCN)C(=O)N[C@@H](Cc3ccccc3)C(=O)N[C@@H](Cc3ccccc3)C(=O)N[C@H](Cc3c[nH]c4ccccc34)C(=O)N2C)cc1 [Peptide No. 2, (cyclo)H-Cys-Lys-Phe-Phe-D-Trp-N^αMeIAmp-Thr-Tyr-Thr-Ser-Cys-OH] (H-CKFF[dW][NMePhe(4-CH2NHiPr)]TYTSC-OH; disulfide 1-11)",–,–,minimal effects,–,~6.1,7.2,> 10000,> 10000,> 1000,> 1000,> 10000,> 10000,–,"effect on binding of the SRIF-28 radioligand to human SSTR2 ([2]; at concentrations of 100 nM): minimal effects; binding to SSTR3, in words ([3]; Peptide No. 27 iodinated): does not bind strongly; binding to SSTR4, in words ([4]; Peptide No. 27 iodinated): does not bind strongly; effect on binding of the SRIF-28 radioligand to human SSTR4 ([4]; at concentrations of 100 nM): minimal effects; effect on binding of the SRIF-28 radioligand to human SSTR5 ([5]; at concentrations of 100 nM): minimal effects"
CC(C)NCc1ccc(C[C@@H]2NC(=O)[C@@H](Cc3c[nH]c4ccccc34)NC(=O)[C@H](Cc3ccccc3)NC(=O)[C@H](Cc3ccccc3)NC(=O)[C@H](CCCCN)NC(=O)[C@@H](N)CSSC[C@@H](C(=O)O)NC(=O)[C@H](CO)NC(=O)[C@H]([C@@H](C)O)NC(=O)[C@H](Cc3ccc(O)c(I)c3)NC(=O)[C@H]([C@@H](C)O)NC2=O)cc1 [Peptide No. 2B] (H-CKFF[dW][Phe(4-CH2NHiPr)]T[Tyr(3-I)]TSC-OH; disulfide 1-11),–,> 10000,–,–,–,–,–,–,–,–,–,–,–,–
"CC(C)NCc1ccc(C[C@H]2C(=O)N[C@@H]([C@@H](C)O)C(=O)N[C@@H](Cc3ccc(O)cc3)C(=O)N[C@@H]([C@@H](C)O)C(=O)N[C@@H](CO)C(=O)N[C@H](C(=O)O)CSSC[C@H](N)C(=O)N[C@@H](CCCCN)C(=O)N[C@@H](Cc3ccccc3)C(=O)N[C@@H](Cc3ccccc3)C(=O)N[C@H](Cc3ccc4ccccc4c3)C(=O)N2C)cc1 [Peptide No. 9A, (cyclo)H-Cys-Lys-Phe-Phe-D-2Nal-N^αMeIAmp-Thr-Tyr-Thr-Ser-Cys-OH] (H-CKFF[d2Nal][NMePhe(4-CH2NHiPr)]TYTSC-OH; disulfide 1-11)",–,–,–,> 1000,~21,24.5,> 10000,> 10000,–,–,> 10000,> 10000,–,"IC50 ([3]; inhibition of radioligand binding of 125I-[Leu8,D-Trp22,Tyr24]SRIF-28, cloned receptor, table, read-out: IC50 (nM) mSSTR3): > 1000 nM; IC50 ([3]; read-out: concentration below which no binding to SSTR3): > 1000 nM; IC50 ([4]; read-out: concentration below which no binding to SSTR4): > 10000 nM"
"CC(C)NCc1ccc(C[C@H]2C(=O)N[C@@H]([C@@H](C)O)C(=O)N[C@@H](Cc3ccc(O)cc3)C(=O)N[C@@H]([C@@H](C)O)C(=O)N[C@@H](CO)C(=O)N[C@H](C(=O)O)CSSC[C@H](NC(N)=O)C(=O)N[C@@H](CCCCN)C(=O)N[C@@H](Cc3ccccc3)C(=O)N[C@@H](Cc3ccccc3)C(=O)N[C@H](Cc3c[nH]c4ccccc34)C(=O)N2C)cc1 [Peptide No. 12, (cyclo)CbmCys-Lys-Phe-Phe-D-Trp-N^αMeIAmp-Thr-Tyr-Thr-Ser-Cys-OH] (KFF[dW][NMePhe(4-CH2NHiPr)]TYTSC-OH; linker N-10 via X1)",good selectivity with good binding strength,> 10000,–,–,–,43,–,–,> 1000,> 1000,–,–,> 10000,–
"CC(C)NCc1ccc(C[C@@H]2NC(=O)[C@@H](Cc3c[nH]c4ccccc34)NC(=O)[C@H](Cc3ccccc3)NC(=O)[C@H](Cc3ccccc3)NC(=O)[C@H](CCCCN)NC(=O)[C@@H](NC(N)=O)CSSC[C@@H](C(=O)O)NC(=O)[C@H](CO)NC(=O)[C@H]([C@@H](C)O)NC(=O)[C@H](Cc3ccc(O)cc3)NC(=O)[C@H]([C@@H](C)O)NC2=O)cc1 [Peptide No. 12A, (cyclo)CbmCys-Lys-Phe-Phe-D-Trp-IAmp-Thr-Tyr-Thr-Ser-Cys-OH] (KFF[dW][Phe(4-CH2NHiPr)]TYTSC-OH; linker N-10 via X1)",–,> 10000,–,–,8.1,–,–,–,> 1000,> 1000,–,–,> 1000,–
